Assay results reported in patent US20220387397A1, “COMPOUNDS AND COMPOSITIONS FOR TREATING CONDITIONS ASSOCIATED WITH NLRP ACTIVITY” (Novartis AG, priority 2018, published 2022).

System: IL-1β production in PMA-differentiated THP-1 cells
Experiment: IL-1β production in PMA-differentiated THP-1 cells stimulated with gramicidin (hTHP-1 assay, 2% bovine serum)
Format: cell-based, human
Settings: Homo sapiens, THP-1; hTHP-1 assay containing 2% bovine serum; Table 13, by Example #
Procedure: The following protocols are suitable for testing the activity of the compounds dislcosed herein. Bioassay 1:
IL-1β Production in PMA-Differentiated THP-1 Cells Stimulated with Gramicidin.
Cell culture-THP-1 cells were purchased from the American Type Culture Collection and sub-cultured according to instructions from the supplier. Prior to experiments, cells were cultured in RPMI 1640 containing 10% heat inactivated FBS, penicillin (100 units/ml) and streptomycin ([…]), and maintained in log phase prior to experimental setup. Prior to the experiment THP-1 were treated with PMA (Phorbol 12-myristate 13-acetate) ([…]) for 24 hours. The day of the experiment the media was removed and attaching cells were treated with trypsin for 2 minutes, cells were then collected, washed with PBS (phosphate buffer saline), spin down, resuspended in 2% heat inactivated FBS with RPMI at a concentration of 1×10^6 cells/ml, and 100 ul was plated in a 96 well plate. Cells were incubated with compounds for 1 hours and then stimulated with Gramicidin (5 μM) (Enzo) for 2 hours. Cell free supernatant was collected and the production of […] was evaluated by ELISA. Compounds were dissolved in dimethyl sulfoxide (DMSO) and added to the culture medium to achieve desired concentration (e.g. 100, 30, 10, 3, 1, 0.3 or 0.1 μM). A vehicle only control was run concurrently with each experiment. Final DMSO concentration was 1%.
THP-1 cells were purchased from the American Type Culture Collection and sub-cultured according to instructions from the supplier. Prior to experiments, cells were cultured in complete RPMI 1640 (containing 10% heat inactivated FBS, penicillin (100 units/ml) and streptomycin ([…])), and maintained in log phase prior to experimental setup. Prior to the experiment THP-1 were treated with PMA (Phorbol 12-myristate 13-acetate) (20 ng/ml) for 16-18 hours. On the day of the experiment the media was removed and adherent cells were detached with trypsin for 5 minutes. Cells were then harvested, washed with complete RPMI 1640, spun down, resuspended in RPMI 1640 (containing 2% heat inactivated FBS, penicillin (100 units/ml) and streptomycin ([…]). The cells were plated in a 384-well plate at a density of 50,000 cells/well (final assay volume […]). Compounds were dissolved in dimethyl sulfoxide (DMSO) and added to the culture medium to achieve desired concentration (e.g. 100, 33, 11, 3.7, 1.2, 0.41, 0.14, 0.046, 0.015, 0.0051, […]). Cells were incubated with compounds for 1 hour and then stimulated with gramicidin (5 μM) (Enzo) for 2 hours. Cell free supernatant was collected and the production of IL-1 was evaluated by HTRF (cisbio). A vehicle only control was run concurrently with each experiment. Final DMSO concentration was 0.38%.
Compounds tested with protocols 1 and 2 provided IC50 values that are within the variability of the assay.
Tables 13 and 14 show the biological activity of compounds in hTHP-1 assay containing 2% bovine serum: <1 μM=“++++”; ≥1 and <5 μM=“+++”; ≥5 and <15 μM=“++”; ≥15 and <60 μM=“+”.

IC50 [µM] | Compound
5 to 15 | CC(C)(O)c1csc(S(=O)(=O)NC(=O)Cc2c3c(cc4c2CCC4)CCC3)c1 [Example 7, 2-(1,2,3,5,6,7-hexahydros-indacen-4-yl)-N-(4-(2-hydroxypropan-2-yl)thiophen-2-ylsulfonyl)acetamide]
5 to 15 | CCc1cc(C(C)C)c(CC(=O)NS(=O)(=O)c2ccc(CN(C)C)cc2)c(C(C)C)c1 [Example 97, N-((4-((dimethylamino)methyl)phenyl)sulfonyl)-2-(4-ethyl-2,6-diisopropylphenyl)acetamide]

Same assay, conditions: Homo sapiens, THP-1; hTHP-1 assay containing 2% bovine serum; Table 14, by Final Target Number

IC50 [µM] | Compound
1 to 5 | CC(C)c1cc(C#N)c(F)c(C(C)C)c1CC(=O)NS(=O)(=O)c1cnc(C(C)(O)CO)s1 (centres unmarked) [Compound 401]
15 to 60 | CNC(=O)c1ccc(S(=O)(=O)NC(=O)Cc2c(C(C)C)cc(C#N)c(F)c2C(C)C)cc1O [Compound 402]
< 1 | CNS(=O)(=O)c1ccc(S(=O)(=O)NC(=O)Cc2c(C(C)C)cc(C#N)c(F)c2C(C)C)c(Cl)c1 [Compound 404]
5 to 15 | CC(C)c1cc(C#N)c(F)c(C(C)C)c1CC(=O)NS(=O)(=O)c1cnc(C(C)(O)CO[C@@H]2O[C@H](CO)[C@@H](O)[C@H](O)[C@H]2O)s1 (some centres unmarked) [Compound 405]
5 to 15 | CC(C)c1cc(C#N)c(F)c(C(C)C)c1CC(=O)NS(=O)(=O)c1cnc(C(C)(C)O)nc1 [Compound 406]
15 to 60 | CC(C)c1cc(C#N)c(F)c(C(C)C)c1CC(=O)NS(=O)(=O)c1cccc(-n2cc(CNC(=O)OC(C)(C)C)nn2)c1 [Compound 407]
5 to 15 | CC(C)c1cc(C#N)cc(C(C)C)c1CC(=O)NS(=O)(=O)c1cnc(C(C)(C)O)nc1 [Compound 409]
< 1 | CC(C)c1cc(C#N)c(F)c(C(C)C)c1CC(=O)NS(=O)(=O)c1cc(C(C)(C)O)no1 [Compound 416]

Same assay, conditions: Homo sapiens, THP-1; hTHP-1 assay containing 2% bovine serum; Table 14, given as a numeric bound

IC50 [µM] | Compound
> 30 | CC(C)c1cc(C#N)c(F)c(C(C)C)c1CC(=O)NS(=O)(=O)c1cccc(NC(=O)CCc2cn(CCNC(=O)OC(C)(C)C)nn2)c1 [Compound 408]
> 30 | CC(C)c1cc(F)cc(C(C)C)c1CC(=O)NS(=O)(=O)c1ccc([C@@H](C)N(C)C(=O)CCc2cn(CCOCCOCCOCCNC(=O)CCCC[C@@H]3SC[C@@H]4NC(=O)N[C@@H]43)nn2)cc1 [Compound 410]
> 30 | CC(C)c1cc(F)cc(C(C)C)c1CC(=O)NS(=O)(=O)c1ccc([C@H](C)N(C)C(=O)CCc2cn(CCOCCOCCOCCNC(=O)CCCC[C@H]3SC[C@@H]4NC(=O)N[C@@H]43)nn2)cc1 [Compound 411]
> 30 | CC(C)c1cc(C2(C(F)(F)F)N=N2)cc(C(C)C)c1CC(=O)NS(=O)(=O)c1ccc(CN(C)C(=O)CCCN(C)C(=O)CCOCCOCCOCCOCCNC(=O)CCCC[C@H]2SC[C@@H]3NC(=O)N[C@@H]32)cc1 [Compound 412]
> 30 | CC(C)c1cc(F)cc(C(C)C)c1CC(=O)NS(=O)(=O)c1ccc(C(C)N(C)C(=O)CCc2cn(CCOCCOCCOCCNC(=O)CCCC[C@@H]3SC[C@@H]4NC(=O)N[C@@H]43)nn2)cc1 (some centres unmarked) [Compound 415]

Same assay, conditions: hTHP-1 assay containing 2% bovine serum; Table 13, by Example #

IC50 [µM] | Compound
1 to 5 | CC(=O)c1ccc(F)c(S(=O)(=O)NC(=O)Cc2c(C(C)C)cc(F)cc2C(C)C)c1 [Example 55]
15 to 60 | N-(4-pentafluorophenylsulfonyl)-2-(4-fluoro-2,6-diisopropylphenyl)acetamide [Example 39]
